According to PMC7914897, “Cytotoxic Potential of a-Azepano- and 3-Amino-3,4-SeCo-Triterpenoids” (International Journal of Molecular Sciences, 2021):

Legend:
EKVX (NSC lung cancer) = assay: NCI-60 screen (SRB, 48 h); settings: Homo sapiens
K-562 (Leukemia) = assay: NCI-60 screen (SRB, 48 h); settings: Homo sapiens
T-47D (Breast cancer) = assay: NCI-60 screen (SRB, 48 h); settings: Homo sapiens, T47D
PC-3 (Prostate cancer) = assay: NCI-60 screen (SRB, 48 h); settings: Homo sapiens
786-0 (Renal cancer) = assay: NCI-60 screen (SRB, 48 h); settings: Homo sapiens
SK-MEL-2 (Melanoma) = assay: NCI-60 screen (SRB, 48 h); settings: Homo sapiens
KM12 (Colon cancer) = assay: NCI-60 screen (SRB, 48 h); settings: Homo sapiens
Prostate cancer subpanel = assay: NCI-60 screen, subpanel; settings: Homo sapiens
CCRF-CEM (Leukemia) = assay: NCI-60 screen (SRB, 48 h); settings: Homo sapiens
[1] = test system: A549/ATCC (NSC lung cancer); assay: NCI-60 screen (SRB, 48 h); settings: Homo sapiens
Renal Cancer subpanel = assay: NCI-60 screen, subpanel; settings: Homo sapiens
NSC lung cancer subpanel = assay: NCI-60 screen, subpanel; settings: Homo sapiens
RPMI-8226 (Leukemia) = assay: NCI-60 screen (SRB, 48 h); settings: Homo sapiens
SK-OV-3 (Ovarian cancer) = assay: NCI-60 screen (SRB, 48 h); settings: Homo sapiens
[2] = test system: NCI-H522 (NSC lung cancer); assay: NCI-60 screen (SRB, 48 h); settings: Homo sapiens
UO-31 (Renal cancer) = assay: NCI-60 screen (SRB, 48 h); settings: Homo sapiens
CAKI-1 (Renal cancer) = assay: NCI-60 screen (SRB, 48 h); settings: Homo sapiens
[3] = test system: HT29 (colorectal carcinoma); assay: SRB cytotoxicity assay, 72 h; type: cell-based, human; settings: HT29, 72 h, cut-off 30 µM
Protocol: (§1) The cytotoxicity of compounds 1–20 was evaluated by means of a colorimetric sulforhodamine B (SRB) assay. For all compounds, the EC50 values were determined for the human tumor cell lines A375 (malignant melanoma), HT29 (colorectal carcinoma), MCF-7 (breast carcinoma), A2780 (ovarian carcinoma), FaDu (hypopharyngeal carcinoma), and NIH 3T3 (non-malignant mouse fibroblasts).
(§2) In short, exponentially growing cells were seeded into 96-well plates on day 0 at the appropriate cell densities to prevent confluence of the cells during the period of experiment. After 24 h, the cells were treated with serial dilutions of the compounds (0–30 µM) for 72 h. The final concentration of DMSO never exceeded 0.5%, which was non-toxic to the cells. After a 72 h treatment, the supernatant medium from the 96-well plates was discarded, and the cells were fixed with 10% TCA. For a thorough fixation, the plates were allowed to rest at 4 °C. After fixation, the cells were washed in a strip washer. The washing was done four times with water using alternate dispensing and aspiration procedures. The plates were then dyed with 100 µL of 0.4% SRB for about 20 min. After dying, the plates were washed with 1% acetic acid to remove the excess of the dye and allowed to air-dry overnight. Tris base solution (200 µL, 10 mM) was added to each well and absorbance was measured at λ = 570 nm (using a 96 well plate reader, Tecan Spectra, Crailsheim, Germany). The percentages of surviving cells relative to untreated controls were determined.

[4] = test system: A375 (malignant melanoma); assay: SRB cytotoxicity assay, 72 h; type: cell-based, human; settings: A375, 72 h, cut-off 30 µM
Protocol: as §1, §2

[5] = test system: FaDu (hypopharyngeal carcinoma); assay: SRB cytotoxicity assay, 72 h; type: cell-based, human; settings: cut-off 30 µM
Protocol: as §1, §2

[6] = test system: A2780 (ovarian carcinoma); assay: SRB cytotoxicity assay, 72 h; type: cell-based, human; settings: A2780, 72 h, cut-off 30 µM
Protocol: as §1, §2

UACC-62 (Melanoma) = assay: NCI-60 screen (SRB, 48 h); settings: Homo sapiens
RXF 393 (Renal cancer) = assay: NCI-60 screen (SRB, 48 h); settings: Homo sapiens

**Q.** What does the source list for `CC1(C)CC[C@]2(CO)CC[C@]3(C)C(=CC[C@@H]4[C@@]5(C)CCCNC(C)(C)[C@@H]5CC[C@]43C)[C@@H]2C1` [Compound 3, azepanoerythrodiol]?
**A.** GI50 (EKVX (NSC lung cancer)): 4.04 µM; IC (TGI) (EKVX (NSC lung cancer); 48 h, read-out: TGI): 20.1 µM; CC50 (EKVX (NSC lung cancer); read-out: LC50): > 100 µM; GI50 (K-562 (Leukemia); K562): 0.4 µM; IC (TGI) (K-562 (Leukemia); K562, 48 h, read-out: TGI): > 100 µM; CC50 (K-562 (Leukemia); K562, read-out: LC50): > 100 µM; GI50 (T-47D (Breast cancer)): 4.08 µM; IC (TGI) (T-47D (Breast cancer); 48 h, read-out: TGI): 16.3 µM; CC50 (T-47D (Breast cancer); read-out: LC50): 48.6 µM; GI50 (PC-3 (Prostate cancer); PC-3): 1.48 µM; IC (TGI) (PC-3 (Prostate cancer); PC-3, 48 h, read-out: TGI): 3.33 µM; CC50 (PC-3 (Prostate cancer); PC-3, read-out: LC50): 7.47 µM; GI50 (786-0 (Renal cancer); 786-0): 2.25 µM; IC (TGI) (786-0 (Renal cancer); 786-0, 48 h, read-out: TGI): 4.84 µM; CC50 (786-0 (Renal cancer); 786-0, read-out: LC50): 12.7 µM; GI50 (SK-MEL-2 (Melanoma); SK-MEL-2): 3.25 µM; IC (TGI) (SK-MEL-2 (Melanoma); SK-MEL-2, 48 h, read-out: TGI): 8.17 µM; CC50 (SK-MEL-2 (Melanoma); SK-MEL-2, read-out: LC50): 36.7 µM; GI50 (KM12 (Colon cancer); KM12): 2.07 µM; IC (TGI) (KM12 (Colon cancer); KM12, 48 h, read-out: TGI): 4.26 µM; CC50 (KM12 (Colon cancer); KM12, read-out: LC50): 8.78 µM; IC (TGI) (Prostate cancer subpanel; 48 h, read-out: TGI MG_MID): 4.02 µM; GI50 (Prostate cancer subpanel; read-out: GI50 MG_MID): 1.89 µM; CC50 (Prostate cancer subpanel; read-out: LC50 MG_MID): 8.54 µM; GI50 (CCRF-CEM (Leukemia)): 2.41 µM; IC (TGI) (CCRF-CEM (Leukemia); 48 h, read-out: TGI): 8.96 µM; CC50 (CCRF-CEM (Leukemia); read-out: LC50): > 100 µM; GI50 ([1]; A549): 4.62 µM; IC (TGI) ([1]; A549, 48 h, read-out: TGI): 17.8 µM; CC50 ([1]; A549, read-out: LC50): 52.4 µM; IC (TGI) (Renal Cancer subpanel; 48 h, read-out: TGI MG_MID): 17.4 µM; GI50 (Renal Cancer subpanel; read-out: GI50 MG_MID): 5.94 µM; CC50 (Renal Cancer subpanel; read-out: LC50 MG_MID): 49.7 µM; IC (TGI) (NSC lung cancer subpanel; 48 h, read-out: TGI MG_MID): 17.8 µM; GI50 (NSC lung cancer subpanel; read-out: GI50 MG_MID): 2.87 µM; CC50 (NSC lung cancer subpanel; read-out: LC50 MG_MID): 44.1 µM; GI50 (RPMI-8226 (Leukemia); RPMI-8226): 2.71 µM; IC (TGI) (RPMI-8226 (Leukemia); RPMI-8226, 48 h, read-out: TGI): 10.1 µM; CC50 (RPMI-8226 (Leukemia); RPMI-8226, read-out: LC50): > 100 µM; GI50 (SK-OV-3 (Ovarian cancer); SK-OV-3): 14.1 µM; IC (TGI) (SK-OV-3 (Ovarian cancer); SK-OV-3, 48 h, read-out: TGI): 28.9 µM; CC50 (SK-OV-3 (Ovarian cancer); SK-OV-3, read-out: LC50): 59.2 µM; GI50 ([2]; NCI-H522): 2.04 µM; IC (TGI) ([2]; NCI-H522, 48 h, read-out: TGI): 4.19 µM; CC50 ([2]; NCI-H522, read-out: LC50): 8.59 µM; GI50 (UO-31 (Renal cancer); UO-31): 10.5 µM; IC (TGI) (UO-31 (Renal cancer); UO-31, 48 h, read-out: TGI): 25.5 µM; CC50 (UO-31 (Renal cancer); UO-31, read-out: LC50): 62.1 µM; GI50 (CAKI-1 (Renal cancer); CAKI-1): 3.05 µM; IC (TGI) (CAKI-1 (Renal cancer); CAKI-1, 48 h, read-out: TGI): 13.7 µM; CC50 (CAKI-1 (Renal cancer); CAKI-1, read-out: LC50): 53.6 µM; EC50 [3]: n.s.; EC50 [4]: n.s.; EC50 [5]: n.s.; EC50 [6]: n.s.; GI50 (UACC-62 (Melanoma); UACC-62): 1.92 µM; IC (TGI) (UACC-62 (Melanoma); UACC-62, 48 h, read-out: TGI): 3.93 µM; CC50 (UACC-62 (Melanoma); UACC-62, read-out: LC50): 8.07 µM; GI50 (RXF 393 (Renal cancer); RXF 393): 2.88 µM; IC (TGI) (RXF 393 (Renal cancer); RXF 393, 48 h, read-out: TGI): 11.7 µM; CC50 (RXF 393 (Renal cancer); RXF 393, read-out: LC50): 48.6 µM
